Experiments:
Test in all cases: KinaseProfiler Assay
ALK4(h) = molecular target: T1, ALK4(h) (Homo sapiens, UniProt P36896)
T1 sequence (P36896 24-505): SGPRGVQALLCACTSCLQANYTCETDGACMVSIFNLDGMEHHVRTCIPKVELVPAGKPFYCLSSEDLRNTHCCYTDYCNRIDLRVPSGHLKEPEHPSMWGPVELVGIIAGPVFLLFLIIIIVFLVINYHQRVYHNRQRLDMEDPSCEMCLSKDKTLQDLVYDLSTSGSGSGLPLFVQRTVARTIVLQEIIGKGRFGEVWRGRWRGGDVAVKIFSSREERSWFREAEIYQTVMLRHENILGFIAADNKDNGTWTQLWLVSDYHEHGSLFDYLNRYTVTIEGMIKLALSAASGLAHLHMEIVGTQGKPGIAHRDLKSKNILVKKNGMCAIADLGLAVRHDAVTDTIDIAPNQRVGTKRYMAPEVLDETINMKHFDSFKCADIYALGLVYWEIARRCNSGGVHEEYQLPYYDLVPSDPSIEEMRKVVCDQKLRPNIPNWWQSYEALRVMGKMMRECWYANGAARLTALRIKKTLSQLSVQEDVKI

CK1(y) = molecular target: CK1(y)
cKit(V560G)(h) = cKit(V560G)(h) (Homo sapiens, UniProt P10721, V560G)
CLK2(h) = CLK2(h) (Homo sapiens, UniProt P49760)
EphA8(h) = molecular target: T2, EphA8(h) (Homo sapiens, UniProt P29322)
T2 sequence (P29322 28-1005): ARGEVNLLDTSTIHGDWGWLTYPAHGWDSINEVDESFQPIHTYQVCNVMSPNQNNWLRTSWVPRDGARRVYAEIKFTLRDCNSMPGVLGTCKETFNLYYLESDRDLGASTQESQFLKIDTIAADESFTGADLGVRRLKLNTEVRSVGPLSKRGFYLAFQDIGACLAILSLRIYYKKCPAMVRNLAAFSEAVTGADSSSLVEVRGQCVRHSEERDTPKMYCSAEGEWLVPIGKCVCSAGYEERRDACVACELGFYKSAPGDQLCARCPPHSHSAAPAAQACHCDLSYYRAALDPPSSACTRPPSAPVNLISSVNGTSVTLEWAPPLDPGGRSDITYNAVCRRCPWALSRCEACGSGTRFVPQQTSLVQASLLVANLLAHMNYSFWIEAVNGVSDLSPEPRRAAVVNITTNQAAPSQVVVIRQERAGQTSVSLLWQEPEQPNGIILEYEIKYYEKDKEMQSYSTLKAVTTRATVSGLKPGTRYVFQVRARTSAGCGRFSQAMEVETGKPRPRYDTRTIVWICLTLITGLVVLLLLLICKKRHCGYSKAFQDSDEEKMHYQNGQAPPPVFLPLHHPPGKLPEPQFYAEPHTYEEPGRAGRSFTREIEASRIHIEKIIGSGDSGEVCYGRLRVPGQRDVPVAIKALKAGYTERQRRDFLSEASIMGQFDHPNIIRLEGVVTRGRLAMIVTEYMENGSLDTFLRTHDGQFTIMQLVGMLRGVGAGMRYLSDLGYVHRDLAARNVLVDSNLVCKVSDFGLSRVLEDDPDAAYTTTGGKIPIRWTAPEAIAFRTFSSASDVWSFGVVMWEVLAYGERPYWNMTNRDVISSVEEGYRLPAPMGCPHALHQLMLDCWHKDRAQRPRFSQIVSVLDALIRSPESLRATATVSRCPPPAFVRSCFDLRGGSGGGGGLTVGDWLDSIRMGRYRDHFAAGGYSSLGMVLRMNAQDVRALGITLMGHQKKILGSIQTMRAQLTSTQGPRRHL

MAPKAP-K3(h) = MAPKAP-K3(h) (Homo sapiens, UniProt Q16644)
MARK1(h) = MARK1(h) (Homo sapiens, UniProt Q9P0L2)
PAK2(h) = PAK2(h) (Homo sapiens, UniProt Q13177)
PAK5(h) = PAK5(h) (Homo sapiens, UniProt Q9P286)
ROCK-I(h) = ROCK-I(h) (Homo sapiens, UniProt Q13464)
TLK2(h) = TLK2(h) (Homo sapiens, UniProt Q86UE8)

cKit(V560G)(h), sequence (P10721 26-976 V560G): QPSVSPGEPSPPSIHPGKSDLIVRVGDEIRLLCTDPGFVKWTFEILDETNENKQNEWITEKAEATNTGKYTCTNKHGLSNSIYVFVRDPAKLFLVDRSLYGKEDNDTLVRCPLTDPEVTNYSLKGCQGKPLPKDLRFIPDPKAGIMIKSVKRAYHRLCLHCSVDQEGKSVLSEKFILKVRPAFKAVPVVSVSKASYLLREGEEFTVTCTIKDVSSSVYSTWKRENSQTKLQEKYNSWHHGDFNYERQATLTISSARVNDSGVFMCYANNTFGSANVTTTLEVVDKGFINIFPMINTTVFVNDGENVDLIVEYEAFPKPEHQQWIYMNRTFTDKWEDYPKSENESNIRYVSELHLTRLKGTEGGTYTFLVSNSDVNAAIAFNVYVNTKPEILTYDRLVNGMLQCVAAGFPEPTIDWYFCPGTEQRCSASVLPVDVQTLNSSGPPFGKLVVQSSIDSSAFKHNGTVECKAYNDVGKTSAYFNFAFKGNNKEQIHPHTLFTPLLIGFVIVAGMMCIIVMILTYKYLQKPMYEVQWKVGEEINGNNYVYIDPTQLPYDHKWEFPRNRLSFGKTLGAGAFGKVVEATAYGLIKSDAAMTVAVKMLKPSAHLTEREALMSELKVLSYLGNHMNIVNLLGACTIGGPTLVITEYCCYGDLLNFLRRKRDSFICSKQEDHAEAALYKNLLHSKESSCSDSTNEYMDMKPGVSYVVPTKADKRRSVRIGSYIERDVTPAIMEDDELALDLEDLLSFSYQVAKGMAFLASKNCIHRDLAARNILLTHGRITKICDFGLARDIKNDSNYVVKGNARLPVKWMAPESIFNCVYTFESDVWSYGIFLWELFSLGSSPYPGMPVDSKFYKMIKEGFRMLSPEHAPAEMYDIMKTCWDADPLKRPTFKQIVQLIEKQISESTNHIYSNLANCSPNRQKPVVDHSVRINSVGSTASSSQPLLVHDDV
MAPKAP-K3(h), sequence (Q16644 whole entry): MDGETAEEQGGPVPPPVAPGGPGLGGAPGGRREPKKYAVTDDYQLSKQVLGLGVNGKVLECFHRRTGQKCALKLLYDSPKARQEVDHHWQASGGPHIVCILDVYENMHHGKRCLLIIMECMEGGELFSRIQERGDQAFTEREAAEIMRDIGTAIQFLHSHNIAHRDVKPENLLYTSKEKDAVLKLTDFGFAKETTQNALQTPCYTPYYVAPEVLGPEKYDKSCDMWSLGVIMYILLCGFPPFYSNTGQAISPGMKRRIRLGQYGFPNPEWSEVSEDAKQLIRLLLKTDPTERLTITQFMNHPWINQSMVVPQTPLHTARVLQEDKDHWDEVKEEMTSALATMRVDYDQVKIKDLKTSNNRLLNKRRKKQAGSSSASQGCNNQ
PAK5(h), sequence (Q9P286 whole entry): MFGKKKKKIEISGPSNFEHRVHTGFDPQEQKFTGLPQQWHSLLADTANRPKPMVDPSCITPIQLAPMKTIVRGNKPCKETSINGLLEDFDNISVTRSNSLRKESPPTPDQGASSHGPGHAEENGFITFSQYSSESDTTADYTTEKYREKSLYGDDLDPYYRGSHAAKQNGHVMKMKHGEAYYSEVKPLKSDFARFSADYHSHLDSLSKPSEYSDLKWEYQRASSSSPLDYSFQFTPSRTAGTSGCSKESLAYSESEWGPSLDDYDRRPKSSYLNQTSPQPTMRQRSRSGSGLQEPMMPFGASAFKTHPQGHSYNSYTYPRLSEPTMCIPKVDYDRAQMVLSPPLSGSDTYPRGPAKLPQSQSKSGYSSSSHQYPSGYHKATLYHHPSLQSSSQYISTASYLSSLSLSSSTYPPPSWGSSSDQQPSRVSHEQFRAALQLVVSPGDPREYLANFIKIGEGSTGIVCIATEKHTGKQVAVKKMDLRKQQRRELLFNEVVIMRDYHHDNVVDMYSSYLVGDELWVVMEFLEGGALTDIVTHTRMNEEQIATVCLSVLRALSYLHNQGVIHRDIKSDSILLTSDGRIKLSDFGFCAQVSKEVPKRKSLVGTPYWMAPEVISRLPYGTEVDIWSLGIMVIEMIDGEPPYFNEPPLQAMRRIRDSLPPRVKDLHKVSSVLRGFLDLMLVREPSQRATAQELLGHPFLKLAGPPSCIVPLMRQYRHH
PAK2(h), sequence (Q13177 whole entry): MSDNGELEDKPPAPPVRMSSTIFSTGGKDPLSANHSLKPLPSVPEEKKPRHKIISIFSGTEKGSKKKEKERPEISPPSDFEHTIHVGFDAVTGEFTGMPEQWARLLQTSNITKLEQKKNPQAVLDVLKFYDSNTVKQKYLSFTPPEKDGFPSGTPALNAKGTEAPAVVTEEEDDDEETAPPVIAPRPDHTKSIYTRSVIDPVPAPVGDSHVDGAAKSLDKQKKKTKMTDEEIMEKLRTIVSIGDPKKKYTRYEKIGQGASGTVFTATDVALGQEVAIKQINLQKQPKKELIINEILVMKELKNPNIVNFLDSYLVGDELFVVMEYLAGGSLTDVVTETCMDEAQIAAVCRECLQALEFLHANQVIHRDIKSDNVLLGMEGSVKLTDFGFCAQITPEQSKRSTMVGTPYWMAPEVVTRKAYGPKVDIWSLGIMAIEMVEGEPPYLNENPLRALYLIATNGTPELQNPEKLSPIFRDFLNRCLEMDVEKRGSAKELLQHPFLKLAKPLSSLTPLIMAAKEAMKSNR
ROCK-I(h), sequence (Q13464 whole entry): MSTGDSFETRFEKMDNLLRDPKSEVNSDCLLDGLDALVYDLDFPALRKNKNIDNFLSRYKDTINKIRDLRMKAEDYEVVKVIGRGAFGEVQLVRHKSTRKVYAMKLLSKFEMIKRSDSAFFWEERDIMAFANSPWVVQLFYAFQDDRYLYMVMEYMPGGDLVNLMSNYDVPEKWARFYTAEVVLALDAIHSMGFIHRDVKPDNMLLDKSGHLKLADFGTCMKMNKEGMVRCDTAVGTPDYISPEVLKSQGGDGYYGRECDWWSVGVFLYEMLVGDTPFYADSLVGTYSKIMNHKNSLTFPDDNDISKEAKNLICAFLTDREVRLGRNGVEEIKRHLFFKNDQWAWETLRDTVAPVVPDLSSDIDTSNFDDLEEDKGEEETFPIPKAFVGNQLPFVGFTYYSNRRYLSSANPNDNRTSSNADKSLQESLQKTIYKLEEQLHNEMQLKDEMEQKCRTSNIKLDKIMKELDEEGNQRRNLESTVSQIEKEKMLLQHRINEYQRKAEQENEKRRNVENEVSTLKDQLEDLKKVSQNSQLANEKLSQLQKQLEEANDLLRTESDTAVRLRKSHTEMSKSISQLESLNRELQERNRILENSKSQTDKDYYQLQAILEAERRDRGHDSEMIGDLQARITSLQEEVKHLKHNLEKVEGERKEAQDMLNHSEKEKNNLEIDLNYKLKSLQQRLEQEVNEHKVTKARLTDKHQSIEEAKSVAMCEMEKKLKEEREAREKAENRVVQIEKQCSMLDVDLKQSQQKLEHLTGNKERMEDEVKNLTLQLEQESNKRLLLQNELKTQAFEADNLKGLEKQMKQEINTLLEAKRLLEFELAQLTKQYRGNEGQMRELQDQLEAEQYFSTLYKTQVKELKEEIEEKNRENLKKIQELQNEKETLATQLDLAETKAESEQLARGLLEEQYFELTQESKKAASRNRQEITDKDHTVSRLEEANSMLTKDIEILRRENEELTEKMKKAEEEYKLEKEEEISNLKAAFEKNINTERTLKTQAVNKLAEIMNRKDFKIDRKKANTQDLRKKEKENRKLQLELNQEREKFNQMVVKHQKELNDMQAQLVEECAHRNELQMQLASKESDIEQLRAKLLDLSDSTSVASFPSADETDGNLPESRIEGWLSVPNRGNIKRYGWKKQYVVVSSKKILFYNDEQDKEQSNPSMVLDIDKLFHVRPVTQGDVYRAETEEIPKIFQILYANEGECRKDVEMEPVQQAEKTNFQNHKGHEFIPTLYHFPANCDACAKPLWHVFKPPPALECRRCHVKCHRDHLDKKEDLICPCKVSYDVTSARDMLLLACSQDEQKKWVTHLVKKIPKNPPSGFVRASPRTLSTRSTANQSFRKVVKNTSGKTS
MARK1(h), sequence (Q9P0L2 whole entry): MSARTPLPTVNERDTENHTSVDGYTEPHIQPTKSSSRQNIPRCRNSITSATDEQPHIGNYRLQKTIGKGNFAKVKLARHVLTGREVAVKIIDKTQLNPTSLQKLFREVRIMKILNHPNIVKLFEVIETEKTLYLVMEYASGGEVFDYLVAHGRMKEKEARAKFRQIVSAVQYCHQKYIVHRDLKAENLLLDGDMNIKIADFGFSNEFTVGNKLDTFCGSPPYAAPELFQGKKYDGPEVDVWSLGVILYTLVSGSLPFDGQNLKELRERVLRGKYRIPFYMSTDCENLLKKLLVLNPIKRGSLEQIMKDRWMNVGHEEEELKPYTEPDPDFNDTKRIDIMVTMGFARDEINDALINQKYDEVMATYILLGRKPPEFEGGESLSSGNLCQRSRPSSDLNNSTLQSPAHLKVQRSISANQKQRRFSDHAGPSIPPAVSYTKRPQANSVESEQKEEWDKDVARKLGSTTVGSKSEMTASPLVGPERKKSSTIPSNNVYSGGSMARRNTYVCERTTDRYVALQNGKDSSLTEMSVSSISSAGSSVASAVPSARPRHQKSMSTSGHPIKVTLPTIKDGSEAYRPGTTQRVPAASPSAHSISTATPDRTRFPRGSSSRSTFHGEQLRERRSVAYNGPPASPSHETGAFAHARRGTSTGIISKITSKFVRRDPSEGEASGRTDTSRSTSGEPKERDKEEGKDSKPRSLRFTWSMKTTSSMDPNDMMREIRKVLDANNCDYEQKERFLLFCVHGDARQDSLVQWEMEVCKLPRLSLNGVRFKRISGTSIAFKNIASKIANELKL

For `CC(C)CCC(=O)[C@]1(O)C(O)=C(C(=O)C(C)C)C(=O)[C@H]1CCC(C)C` [TH2, tetrahydroiso-cohumulone], the kinase inhibition (ALK4(h); 1 μg/ml) was 109% of control, the kinase inhibition (ALK4(h); 5 μg/ml) was 104% of control and the kinase inhibition (ALK4(h); 25 μg/ml) was 97% of control. For the same compound, the kinase inhibition (ALK4(h); 50 μg/ml) was 83% of control, the kinase inhibition (ALK4(h); 100 μg/ml) was 63% of control and the kinase inhibition (CK1(y); 25 μg/ml) was 110% of control. The kinase inhibition (CK1(y); 50 μg/ml) was 110% of control, the kinase inhibition (CK1(y); 100 μg/ml) was 100% of control and the kinase inhibition (cKit(V560G)(h); 1 μg/ml) was 112% of control. The kinase inhibition (cKit(V560G)(h); 5 μg/ml) was 114% of control, the kinase inhibition (cKit(V560G)(h); 25 μg/ml) was 105% of control and the kinase inhibition (cKit(V560G)(h); 50 μg/ml) was 90% of control. The kinase inhibition (cKit(V560G)(h); 100 μg/ml) was 78% of control, the kinase inhibition (CLK2(h); 1 μg/ml) was 103% of control and the kinase inhibition (CLK2(h); 5 μg/ml) was 100% of control. The kinase inhibition (CLK2(h); 25 μg/ml) was 110% of control, the kinase inhibition (CLK2(h); 50 μg/ml) was 101% of control and the kinase inhibition (CLK2(h); 100 μg/ml) was 96% of control. For the same compound, the kinase inhibition (EphA8(h); 1 μg/ml) was 118% of control, the kinase inhibition (EphA8(h); 5 μg/ml) was 99% of control and the kinase inhibition (EphA8(h); 25 μg/ml) was 112% of control. For the same compound, the kinase inhibition (EphA8(h); 50 μg/ml) was 101% of control, the kinase inhibition (EphA8(h); 100 μg/ml) was 100% of control and the kinase inhibition (MAPKAP-K3(h); 1 μg/ml) was 101% of control. For the same compound, the kinase inhibition (MAPKAP-K3(h); 5 μg/ml) was 100% of control, the kinase inhibition (MAPKAP-K3(h); 25 μg/ml) was 109% of control and the kinase inhibition (MAPKAP-K3(h); 50 μg/ml) was 104% of control. For the same compound, the kinase inhibition (MAPKAP-K3(h); 100 μg/ml) was 101% of control, the kinase inhibition (MARK1(h); 1 μg/ml) was 109% of control and the kinase inhibition (MARK1(h); 5 μg/ml) was 110% of control. For the same compound, the kinase inhibition (MARK1(h); 25 μg/ml) was 97% of control, the kinase inhibition (MARK1(h); 50 μg/ml) was 90% of control and the kinase inhibition (MARK1(h); 100 μg/ml) was 63% of control. For the same compound, the kinase inhibition (PAK2(h); 1 μg/ml) was 116% of control, the kinase inhibition (PAK2(h); 5 μg/ml) was 110% of control and the kinase inhibition (PAK2(h); 25 μg/ml) was 107% of control. The kinase inhibition (PAK2(h); 50 μg/ml) was 101% of control, the kinase inhibition (PAK2(h); 100 μg/ml) was 96% of control and the kinase inhibition (PAK5(h); 1 μg/ml) was 106% of control. For the same compound, the kinase inhibition (PAK5(h); 5 μg/ml) was 105% of control, the kinase inhibition (PAK5(h); 25 μg/ml) was 91% of control and the kinase inhibition (PAK5(h); 50 μg/ml) was 93% of control. The kinase inhibition (PAK5(h); 100 μg/ml) was 61% of control, the kinase inhibition (ROCK-I(h); 1 μg/ml) was 110% of control and the kinase inhibition (ROCK-I(h); 5 μg/ml) was 111% of control. For the same compound, the kinase inhibition (ROCK-I(h); 25 μg/ml) was 110% of control, the kinase inhibition (ROCK-I(h); 50 μg/ml) was 100% of control and the kinase inhibition (ROCK-I(h); 100 μg/ml) was 88% of control. The kinase inhibition (TLK2(h); 1 μg/ml) was 98% of control, the kinase inhibition (TLK2(h); 5 μg/ml) was 89% of control and the kinase inhibition (TLK2(h); 25 μg/ml) was 106% of control. The kinase inhibition (TLK2(h); 50 μg/ml) was 94% of control and the kinase inhibition (TLK2(h); 100 μg/ml) was 98% of control.
